From patent US20070293443A1, “Composition for Accelerating Calcium Absorption” (Good Shusei Co. Ltd, priority 2004, published 2007)
Entries after “also recorded” stand apart in the source; their conditions may differ.

Assays:
[1] = tested on: dietary calcium absorption; assay: Dietary calcium absorption accelerating effect, blood calcium level after oral calcium carbonate with test substance (Example 1); format: in vivo; settings: male ICR mice, oral 5 mmol/kg calcium carbonate alone or with test substance (1.25-10.0 mmol/kg), up to 4 hours after administration
Excerpt: For the experiment, 11-weeks old male ICR mice were used after overnight fasting. During the test period, the mice were given deionized water only. […] The doses of L-arabonic acid administered in combination were 1.25 mmol/kg (Group II), 2.5 mmol/kg (Group III), 5.0 mmol/kg (Group IV), and 10.0 mmol/kg (Group V), and the doses of D-gluconic acid were 2.5 mmol/kg (Group VI), 5.0 mmol/kg (Group VII), and 10.0 mmol/kg (Group VIII). […] The blood calcium level was quantified by a chelate colorimetric method (ortho-cresolphthalein complexone (OCPC) method). The obtained data were analyzed by a paired t-test, and a risk ratio of 5% or less was considered as significant difference.

[2] = Kinetics of L-arabonic acid in the digestive tract of rat (Example 3); format: in vivo
Experimental: For the experiment, 7 to 11-weeks old male Wistar rats were used after overnight fasting. After orally administering 5 mmol/kg of L-arabonic acid, the animals were entered into a metabolic cage, and were sacrificed after 2 hours, after 6 hours, and after 24 hours, to remove the digestive tracts. The contents in each site of the digestive tract were recovered respectively, and the amount of unaltered L-arabonic acid was quantified by the HPLC method. The entire amounts of urine and feces up to the respective time points were recovered, and the amounts of L-aranobic acid were quantified in the same manner. During the test period, the animals were given deionized water only.

mice = assay: Single oral administration safety test, LD50; format: in vivo
Excerpt: As a result of a single oral test using mice, it was confirmed that the LD50 value of L-arabonic acid was about 10 g/kg, and thus L-arabonic acid was a material having high safety.
While it was discovered in Example 5 that the calcium moiety of calcium L-arabonate used in the invention was extremely readily-absorbable, it was shown in Example 6 that the L-arabonic acid moiety was extremely poorly absorbed in the digestive tract.

[3] = tested on: dietary calcium absorption; assay: Dietary calcium absorption accelerating effect of sodium L-arabonate in mice fed calcium-deficient diet (Example 2); format: in vivo; settings: for Ca level in blood, 0 min: 0 min (before administration); for Ca level in blood, 0 min / Ca level in blood, 2 hrs / Ca level in blood, 4 hrs: oral 5 mmol/kg calcium carbonate alone (Group I) or with 5 mmol/kg sodium L-arabonate (Group II), n = 4; for Ca level in blood, 2 hrs: 2 hrs after administration; for Ca level in blood, 4 hrs: 4 hrs after administration; for change in blood calcium level: up to 4 hours after oral administration, mice on calcium-deficient diet
Experimental: Eight-week old male ICR mice were used and fed calcium-deficient diet and deionized water for one week. The mice were fasted overnight before the test, and were given deionized water only during the test period. […] The obtained data were analyzed by a paired t-test, and a risk ratio of 5% or less was considered as significant difference.

[4] = Blood calcium level after administration of calcium L-arabonate (Example 5); format: in vivo; settings: male ICR mice, oral calcium L-arabonate 1.25, 2.5, 5.0 mmol/kg or calcium carbonate 5 mmol/kg, up to 4 hours
Experimental: For the experiment, 11-weeks old male ICR mice were used after overnight fasting. During the test period, the mice were given deionized water only. The mice were divided into four groups (Groups I to IV, 5 animals in each group), and the test substance was orally administered as a solution in deionized water. […] The blood calcium level was quantified by a chelating calorimetric method (ortho-cresolphthalein complexone (OCPC) method). The obtained data were analyzed by a paired t-test, and a risk ratio of 5% or less was considered as significant difference.

[5] = tested on: experimental osteoporosis induced by calcium-deficient diet; assay: Experimental osteoporosis induced by calcium-deficient diet (Example 7); format: in vivo, mice; settings: dose 2.5 mmol/kg oral daily
Experimental: (§1) Six-week old female ICR mice were divided into five groups (Groups I to V, 10 animals in each group), and fed calcium-deficient feed (calcium carbonate-free AIN 93M, Oriental Yeast Co., Ltd.) for 4 weeks to induce osteoporosis condition. Calcium L-arabonate was dissolved in water and orally administered daily in a dose of 1.25 mmol/kg (Group II) or 2.5 mmol/kg (Group III). The control group for pathological condition (Group I) was administered with water in the same manner. As a comparative group, a group administered with calcium D-gluconate (dose 2.5 mmol/kg (Group IV)) was provided. A normal control group (Group V) was separately provided and was given the normal feed (AIN 93M, Oriental Yeast Co., Ltd.). After administering the test substance on the second week and fourth week of initiation of the test, the animals were transferred to a metabolic cage, and feces were collected for 24 hours. The amount of calcium and phosphorus excreted in the feces were measured, and the absorption rates of ingested calcium and phosphorous in the digestive tract were determined. After completion of the test period, the animals of the respective groups were sacrificed to remove both femurs and tibiae. The femurs and tibiae were removed muscles etc., then immersed in 70% ethanol overnight, and dried at 60° C. for 24 hours to be used as samples for analysis. The measurement items were dry weight, ash content, calcium content, and phosphorus content. The ash content was measured by an ashing method at 550° C. for 18 hours, the calcium content was measured by an OCPC method (Calcium C-Test Wako, Wako Pure Chemical Industries, Ltd.), and the phosphorus content was measured by a p-methylaminophenol reduction method (Phospho C-Test Wako, Wako Pure Chemical Industries, Ltd.). The obtained data were analyzed by ANOVA and the Dunnett's method, and a risk ratio of 5% or less was considered as significant difference.

[6] = tested on: experimental osteoporosis induced by combination of ovary excision and calcium-deficient diet; assay: Experimental osteoporosis due to combination of ovary excision and calcium-deficient diet (Example 8); format: in vivo, mice; settings: dose 2.5 mmol/kg oral daily
Experimental: as §1
Six-weeks old female ICR mice excised their ovaries were divided into 5 groups (Groups I to V, 10 animals in each group), and fed calcium-deficient feed (calcium carbonate-free AIN 93M, Oriental Yeast Co., Ltd.) for 4 weeks to induce osteoporosis condition. Calcium L-arabonate was dissolved in water, and orally administered daily in a dose of 1.25 mmol/kg (Group II) or 2.5 mmol/kg (Group III). The control group for pathological condition (Group I) was administered with water in the same manner. As a comparative group, a group administered with calcium D-gluconate (dose 2.5 mmol/kg (Group IV)) was provided. Also, a group excised ovaries but given with normal feed (AIN 93M, Oriental Yeast Co., Ltd.) (Group V) was separately provided. The measurement of the absorption rate of calcium in the digestive tract, and the analysis of femur and tibia were performed in the same manner as in Example 7.

For `O=C(O)[C@H](O)[C@@H](O)[C@H](O)[C@H](O)CO` [D-gluconic acid, reference compound], the “change in blood calcium level” value [1] was “not observed to have significant increases in the blood calcium level”.

In the case of `O=C(O)[C@H](O)[C@@H](O)[C@@H](O)CO` [L-arabonic acid], the “change in blood calcium level” value [1] is reported as “dose-dependent and significant increases in the blood calcium level; also recorded: calcium absorption was accelerated by L-arabonic acid, and the effect was rapidly acting and continuous”, the “share of the total amount of administration remained in the cecum and colon” value ([2]; after 24 hours, oral 5 mmol/kg) is reported as “About 30%” and the “absorption in the small intestine” value ([2]; from 2 to 6 hours after oral administration) is reported as “hardly absorbed in the small intestine”. The “Residual ratio after administration, Cecum, After 2 hrs” value ([2]; oral 5 mmol/kg L-arabonic acid, cecum, 2 hrs) was 47.7 ± 3.39%, the “Residual ratio after administration, Cecum, After 6 hrs” value ([2]; oral 5 mmol/kg L-arabonic acid, cecum, 6 hrs) was 60.6 ± 3.26% and the “Residual ratio after administration, Cecum, After 24 hrs” value ([2]; oral 5 mmol/kg L-arabonic acid, cecum, 24 hrs) was 25.9 ± 7.81%. The “Residual ratio after administration, Colon, After 2 hrs” value ([2]; oral 5 mmol/kg L-arabonic acid, colon, 2 hrs) was 0.1 ± 0.14%, the “Residual ratio after administration, Colon, After 6 hrs” value ([2]; oral 5 mmol/kg L-arabonic acid, colon, 6 hrs) was 7.4 ± 2.35% and the “Residual ratio after administration, Colon, After 24 hrs” value ([2]; oral 5 mmol/kg L-arabonic acid, colon, 24 hrs) was 1.9 ± 0.37%. For the same compound, the “Residual ratio after administration, Small intestine, After 2 hrs” value ([2]; oral 5 mmol/kg L-arabonic acid, small intestine, 2 hrs) was 23.0 ± 3.71%, the “Residual ratio after administration, Small intestine, After 6 hrs” value ([2]; oral 5 mmol/kg L-arabonic acid, small intestine, 6 hrs) was 3.3 ± 2.50% and the “Residual ratio after administration, Small intestine, After 24 hrs” value ([2]; oral 5 mmol/kg L-arabonic acid, small intestine, 24 hrs) was 0.8 ± 0.20%. The “Residual ratio after administration, Stomach, After 2 hrs” value ([2]; oral 5 mmol/kg L-arabonic acid, stomach, 2 hrs) was 0%, the “Residual ratio after administration, Stomach, After 6 hrs” value ([2]; oral 5 mmol/kg L-arabonic acid, stomach, 6 hrs) was 0% and the “Residual ratio after administration, Stomach, After 24 hrs” value ([2]; oral 5 mmol/kg L-arabonic acid, stomach, 24 hrs) was 0%. For the same compound, the “L-arabonic acid in excreted feces” value ([2]; oral 5 mmol/kg, feces up to 24 hours) was “detected from the excreted feces”, the “unaltered L-arabonic acid in urine” value ([2]; oral 5 mmol/kg, urine up to 24 hours) was “detected from the urine, even in small amount” and the “level of L-arabonic acid in the blood” value ([2]; throughout the test period, oral 5 mmol/kg) was “below the detection limit”. The LD50 (mice) was “about 10 g/kg”.

In the case of `O=C([O-])[O-].[Ca+2]` [calcium carbonate, reference compound], the “change in blood calcium level” value [1] is reported as “did not show any increase in the blood calcium level”, the “Ca level in blood, 0 min” value [3] is reported as 4.67 ± 0.297 mg/dL and the “Ca level in blood, 2 hrs” value [3] is reported as 4.58 ± 0.143 mg/dL. The “Ca level in blood, 4 hrs” value [3] was 4.82 ± 0.189 mg/dL, the “change in blood calcium level” value [3] was “did not show any increase in the blood calcium level” and the “change in blood calcium level” value [4] was “did not show any increase in the blood calcium level”.

With `O=C([O-])[C@H](O)[C@@H](O)[C@@H](O)CO.[Na+]` [sodium L-arabonate] the “Ca level in blood, 0 min” value [3] was 4.30 ± 0.121 mg/dL, the “Ca level in blood, 2 hrs” value [3] was 5.59 ± 0.232 mg/dL and the “Ca level in blood, 4 hrs” value [3] was 5.62 ± 0.212 mg/dL. The “change in blood calcium level” value [3] was “significant increase in the blood calcium level”.

For “calcium D-gluconate [reference compound]”, the “absorption rate of calcium in the digestive tract, fourth week” value ([5]; fourth week, calcium-deficient diet mice) was 59.8%, the “absorption rate of calcium in the digestive tract, second week” value ([5]; second week, calcium-deficient diet mice) was 74.2% and the “Femur Ash content” value ([5]; femur, 4 weeks) was 25 ± 1.3 mg. The “Femur Ca content” value ([5]; femur, 4 weeks) was 8.7 ± 0.42 mg, the “Femur P content” value ([5]; femur, 4 weeks) was 4.7 ± 0.21 mg and the “Femur Weight” value ([5]; femur, 4 weeks) was 46 ± 2.1 mg. For the same compound, the “Tibia Ash content” value ([5]; tibia, 4 weeks) was 23 ± 1.2 mg, the “Tibia Ca content” value ([5]; tibia, 4 weeks) was 8.3 ± 0.34 mg and the “Tibia P content” value ([5]; tibia, 4 weeks) was 4.3 ± 0.16 mg. For the same compound, the “Tibia Weight” value ([5]; tibia, 4 weeks) was 44 ± 1.1 mg, the “absorption rate of calcium in the digestive tract, fourth week” value ([6]; fourth week, ovary-excised mice on calcium-deficient diet) was 45.1% and the “absorption rate of calcium in the digestive tract, second week” value ([6]; second week, ovary-excised mice on calcium-deficient diet) was 61.1%. The “Femur Ash content” value ([6]; femur, 4 weeks) was 27 ± 0.4 mg, the “Femur Ca content” value ([6]; femur, 4 weeks) was 9.4 ± 0.18 mg and the “Femur P content” value ([6]; femur, 4 weeks) was 4.8 ± 0.14 mg. For the same compound, the “Femur Weight” value ([6]; femur, 4 weeks) was 50 ± 1.2 mg, the “Tibia Ash content” value ([6]; tibia, 4 weeks) was 24 ± 0.5 mg and the “Tibia Ca content” value ([6]; tibia, 4 weeks) was 8.6 ± 0.21 mg. For the same compound, the “Tibia P content” value ([6]; tibia, 4 weeks) was 4.4 ± 0.08 mg and the “Tibia Weight” value ([6]; tibia, 4 weeks) was 46 ± 1.0 mg.
